Reference: PubChem BioAssay AID248 (DTP/NCI, 2004)
“And” between values parts separate entries of the source, which are not always exact repeats. Equal values may be shown once. Toxic doses and inconclusive results are not listed. Cut-off read from the data, not from the text of the source: active = T/C of 150% or more; inactive = T/C below 125%.

System: L1210 leukemia ip in BDF1 mice, survival T/C
Assay: NCI In Vivo Anticancer Drug Screen. Data for tumor model L1210 Leukemia (intraperitoneal) in B6D2F1 (BDF1) mice
Conditions: endpoint: mean survival time, higher = longer survival
In short: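 Mice bearing the transplanted tumor received compound or vehicle. Survival of the treated group was divided by that of the vehicle-treated control group to give the ratio.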

[1] = dose: 400.0 mg/kg/injection, schedule: Q04DX003 (ip), vehicle: saline with Tween-80
[2] = dose: 100.0 mg/kg/injection, schedule: Q04DX002 (ip), vehicle: saline
[3] = dose: 200.0 mg/kg/injection, schedule: Q04DX002 (ip), vehicle: saline
[4] = dose: 100.0 mg/kg/injection, schedule: Q01DX001 (ip), vehicle: saline
[5] = dose: 200.0 mg/kg/injection, schedule: Q01DX001 (ip), vehicle: saline
[6] = dose: 100.0 mg/kg/injection, schedule: Q01DX001 (ip), vehicle: carboxymethylcellulose (CMC)
[7] = dose: 200.0 mg/kg/injection, schedule: Q01DX001 (ip), vehicle: carboxymethylcellulose (CMC)
[8] = dose: 400.0 mg/kg/injection, schedule: Q01DX001 (ip), vehicle: carboxymethylcellulose (CMC)
[9] = dose: 100.0 mg/kg/injection, schedule: Q04DX003 (ip), vehicle: saline with Tween-80
[10] = dose: 200.0 mg/kg/injection, schedule: Q04DX003 (ip), vehicle: saline with Tween-80
[11] = dose: 400.0 mg/kg/injection, schedule: Q01DX001 (ip), vehicle: saline
[12] = dose: 100.0 mg/kg/injection, schedule: Q04DX003 (ip), vehicle: saline
[13] = dose: 100.0 mg/kg/injection, schedule: Q04DX003 (ip), vehicle: Klucel (hydroxypropylcellulose) (HPC)
[14] = dose: 200.0 mg/kg/injection, schedule: Q04DX003 (ip), vehicle: Klucel (hydroxypropylcellulose) (HPC)
[15] = dose: 400.0 mg/kg/injection, schedule: Q04DX003 (ip), vehicle: Klucel (hydroxypropylcellulose) (HPC)
[16] = dose: 75.0 mg/kg/injection, schedule: Q01DX001 (ip), vehicle: saline
[17] = dose: 100.0 mg/kg/injection, schedule: Q01DX009 (ip), vehicle: Klucel (hydroxypropylcellulose) (HPC)
[18] = dose: 200.0 mg/kg/injection, schedule: Q01DX009 (ip), vehicle: Klucel (hydroxypropylcellulose) (HPC)
[19] = dose: 100.0 mg/kg/injection, schedule: Q04DX002 (ip), vehicle: Klucel (hydroxypropylcellulose) (HPC)
[20] = dose: 200.0 mg/kg/injection, schedule: Q04DX002 (ip), vehicle: Klucel (hydroxypropylcellulose) (HPC)
[21] = dose: 400.0 mg/kg/injection, schedule: Q04DX002 (ip), vehicle: Klucel (hydroxypropylcellulose) (HPC)

Measured: T/C

COc1cc(\C=N/N=C/C=C/c2ccccc2)cc(OC)c1OC
inactive: dose: 50.0 mg/kg/injection, schedule: Q04DX003 (ip), vehicle: saline with Tween-80 95 % of control | dose: 100.0 mg/kg/injection, schedule: Q04DX002 (ip), vehicle: saline with Tween-80 87 % of control and 90 % of control | dose: 200.0 mg/kg/injection, schedule: Q04DX002 (ip), vehicle: saline with Tween-80 104 % of control and 113 % of control | dose: 400.0 mg/kg/injection, schedule: Q04DX002 (ip), vehicle: saline with Tween-80 102 % of control and 103 % of control | [1] 93 % of control and 88 % of control

Cc1ncc(CO)c(COCCC(C)C)c1O
inactive: [2] 95 % of control | [3] 98 % of control

CCCCCCCCCCCCCCCCCCn1cnc2c(N)ncnc21
inactive: dose: 12.5 mg/kg/injection, schedule: Q01DX005 (ip), vehicle: other 105 % of control | dose: 25.0 mg/kg/injection, schedule: Q01DX005 (ip), vehicle: other 97 % of control | dose: 50.0 mg/kg/injection, schedule: Q01DX005 (ip), vehicle: other 102 % of control | dose: 100.0 mg/kg/injection, schedule: Q01DX005 (ip), vehicle: other 103 % of control | dose: 200.0 mg/kg/injection, schedule: Q01DX005 (ip), vehicle: other 108 % of control

CC(C)C1SC(=S)NC1=O (stereo not given)
inactive: [4] 88 % of control | [5] 95 % of control

CC1=NN(c2ccccc2)C(=O)C1N=Nc1ccc(S(=O)(=O)Nc2occ(C)c2C)cc1 (stereo not given)
inactive: [6] 90 % of control | [7] 90 % of control | [8] 93 % of control

O=C(/C=C(\c1ccccc1)c1ccc([N+](=O)[O-])cc1)Nc1ccc(S(=O)(=O)F)cc1
inactive: [9] 96 % of control | [10] 91 % of control | [1] 96 % of control

CC1COCCCCCC(=O)C1 (stereo not given)
inactive: [4] 91 % of control | [5] 107 % of control | [11] 107 % of control

CN(C)c1ccc(/C=N/NC(=O)Cc2cccc3ccccc23)cc1
inactive: dose: 100.0 mg/kg/injection, schedule: Q01DX009 (ip), vehicle: saline with Tween-80 90 % of control | dose: 200.0 mg/kg/injection, schedule: Q01DX009 (ip), vehicle: saline with Tween-80 86 % of control | dose: 400.0 mg/kg/injection, schedule: Q01DX009 (ip), vehicle: saline with Tween-80 86 % of control

CC(C)(C)C1CC[N-]CC1.CC(C)(C)C1CC[N-]CC1.[Cl][Pt+2]([Cl])([Cl])[Cl]
inactive: dose: 12.5 mg/kg/injection, schedule: Q01DX009 (ip), vehicle: saline 96 % of control | dose: 12.5 mg/kg/injection, schedule: Q04DX003 (ip), vehicle: saline 97 % of control | dose: 25.0 mg/kg/injection, schedule: Q01DX009 (ip), vehicle: saline 92 % of control | dose: 25.0 mg/kg/injection, schedule: Q04DX003 (ip), vehicle: saline 90 % of control | dose: 50.0 mg/kg/injection, schedule: Q04DX003 (ip), vehicle: saline 93 % of control and 99 % of control | [12] 94 % of control and 97 % of control

Nc1[nH]cnc(=S)c1NC=O
inactive: dose: 100.0 mg/kg/injection, schedule: Q01DX001 (ip), vehicle: acetone 92 % of control | dose: 200.0 mg/kg/injection, schedule: Q01DX001 (ip), vehicle: acetone 92 % of control | dose: 400.0 mg/kg/injection, schedule: Q01DX001 (ip), vehicle: acetone 88 % of control

O=C1C(Br)=C(c2ccccc2)C(=O)C(Br)=C1c1ccccc1
inactive: [6] 90 % of control | [7] 92 % of control | [8] 97 % of control

C/C(CCC(=O)OC(C)(C)C)=N\N(C)C
inactive: [12] 93 % of control | dose: 200.0 mg/kg/injection, schedule: Q04DX003 (ip), vehicle: saline 91 % of control | dose: 400.0 mg/kg/injection, schedule: Q04DX003 (ip), vehicle: saline 111 % of control

CC(C)C(Sc1nc(N)nc2nc[nH]c12)C(=O)O (stereo not given)
inactive: [4] 98 % of control | dose: 100.0 mg/kg/injection, schedule: Q01DX009 (ip), vehicle: saline sonified 94 % of control | [13] 96 % of control | [5] 96 % of control | dose: 200.0 mg/kg/injection, schedule: Q01DX009 (ip), vehicle: saline sonified 106 % of control | [14] 100 % of control | [11] 102 % of control | dose: 400.0 mg/kg/injection, schedule: Q01DX009 (ip), vehicle: saline sonified 100 % of control | [15] 98 % of control

CC(C)CC(CC(C)C)NC(C)COC(=O)c1ccc(N)cc1 (stereo not given)
inactive: [16] 96 % of control

C/C(=C/C(=O)O)c1cc2ccccc2n1C
inactive: [9] 100 % of control | [10] 92 % of control | [1] 96 % of control

Cc1cc2c(cc1C)NC(=O)C(C)CN2 (stereo not given)
inactive: [17] 103 % of control | [13] 98 % of control | [18] 108 % of control | [14] 103 % of control | dose: 400.0 mg/kg/injection, schedule: Q01DX009 (ip), vehicle: Klucel (hydroxypropylcellulose) (HPC) 95 % of control | [15] 101 % of control

C=CCC(O)c1ccccc1 (stereo not given)
inactive: [2] 103 % of control | [3] 100 % of control | dose: 400.0 mg/kg/injection, schedule: Q04DX002 (ip), vehicle: saline 113 % of control

CCc1nc(C#N)c(N)o1
inactive: dose: 5.0 mg/kg/injection, schedule: Q01DX001 (ip), vehicle: saline 98 % of control | dose: 10.0 mg/kg/injection, schedule: Q01DX001 (ip), vehicle: saline 103 % of control | dose: 20.0 mg/kg/injection, schedule: Q01DX001 (ip), vehicle: saline 97 % of control | dose: 40.0 mg/kg/injection, schedule: Q01DX001 (ip), vehicle: saline 95 % of control | dose: 80.0 mg/kg/injection, schedule: Q01DX001 (ip), vehicle: saline 98 % of control

[Cl][Ho]([Cl])[Cl]
inactive: dose: 100.0 mg/kg/injection, schedule: Q01DX005 (ip), vehicle: Klucel (hydroxypropylcellulose) (HPC) 94 % of control | [17] 98 % of control | [19] 88 % of control | dose: 200.0 mg/kg/injection, schedule: Q01DX005 (ip), vehicle: Klucel (hydroxypropylcellulose) (HPC) 98 % of control | [18] 95 % of control | [20] 98 % of control | dose: 400.0 mg/kg/injection, schedule: Q01DX005 (ip), vehicle: Klucel (hydroxypropylcellulose) (HPC) 88 % of control | [21] 109 % of control

O=C1CC(c2ccccc2)C(c2ccccc2)C(=O)N1 (stereo not given)
inactive: [16] 90 % of control | dose: 150.0 mg/kg/injection, schedule: Q01DX001 (ip), vehicle: saline 90 % of control

C=C1C(=O)OC2CCCCC3OC3C12 (stereo not given)
inactive: dose: 100.0 mg/kg/injection, schedule: Q01DX001 (ip), vehicle: saline with Tween-80 102 % of control

CC(=O)Nc1ccc(/C=C/C(=O)c2ccc(C)cc2)cc1
inactive: dose: 100.0 mg/kg/injection, schedule: Q01DX001 (ip), vehicle: Klucel (hydroxypropylcellulose) (HPC) 101 % of control | [13] 104 % of control | dose: 200.0 mg/kg/injection, schedule: Q01DX001 (ip), vehicle: Klucel (hydroxypropylcellulose) (HPC) 100 % of control | [14] 103 % of control | dose: 400.0 mg/kg/injection, schedule: Q01DX001 (ip), vehicle: Klucel (hydroxypropylcellulose) (HPC) 103 % of control | [15] 94 % of control

CNc1n[nH]c(=S)s1
inactive: [19] 101 % of control | [20] 104 % of control | [21] 104 % of control

CCOC(=O)c1ccc(N(Cc2cccc([N+](=O)[O-])c2)S(=O)(=O)c2ccc(C)cc2)cc1
inactive: dose: 75.0 mg/kg/injection, schedule: Q01DX001 (ip), vehicle: saline with Tween-80 93 % of control | dose: 150.0 mg/kg/injection, schedule: Q01DX001 (ip), vehicle: saline with Tween-80 87 % of control
